ChEMBL document CHEMBL6120994, “Unravelling the potential of natural chelating agents in the control of Staphylococcus aureus and Pseudomonas aeruginosa biofilms” (Eur J Med Chem, 2025)
The source made the active and inactive calls. The rule behind the calls is not given here.

Assays:
[1] = tested on: Staphylococcus aureus; assay: Inhibition of virulence production in Staphylococcus aureus CECT 976 biofilms assessed as diameter of lipases halo at 1/2XMTC measured after 48 hrs in presence of 1/2XMIC tobramycin (reference value: 12.5 to 13.5 mm); assay type: functional
[2] = tested on: Staphylococcus aureus; assay: Inhibition of virulence production in pre-established 24 hr-old Staphylococcus aureus CECT 976 biofilms assessed as diameter of protease halo at 10XMTC measured after 72 hrs in presence of 1XMIC tobramycin (reference value: 11.5 to 12 mm); assay type: functional
[3] = tested on: Staphylococcus aureus; assay: Antibacterial activity against Staphylococcus aureus CECT 976 assessed as inhibition of bacterial growth by measuring inhibition zone diameter at 1000 ug/ml incubated for 24 hrs in presence of gentamicin by disc diffusion method (reference value: 12 +/- 1.63 mm); assay type: functional; details: read-out: DIZ
[4] = tested on: Staphylococcus aureus; assay: Antibacterial activity against Staphylococcus aureus CECT 976 assessed as inhibition of bacterial growth by measuring inhibition zone diameter at 1000 ug/ml incubated for 24 hrs in presence of ciprofloxacin by disc diffusion method (reference value: 29.25 +/- 0.96 mm); assay type: functional; details: read-out: DIZ
[5] = tested on: Staphylococcus aureus; assay: Inhibition of virulence production in Staphylococcus aureus CECT 976 biofilms assessed as diameter of lipases halo at 1/2XMTC measured after 48 hrs in presence of 1/4XMIC tobramycin (reference value: 12.3 to 13.5 mm); assay type: functional
[6] = tested on: Pseudomonas aeruginosa; assay: Bactericidal activity against Pseudomonas aeruginosa ATCC 10145 assessed as bacterial killing incubated in MHB for 24 hrs and measured following culturing on agar plate for 24 hrs; assay type: functional; details: time 48 hrs
[7] = tested on: Pseudomonas aeruginosa; assay: Antibiotic adjuvant activity against preestablished 24-hr old Pseudomonas aeruginosa ATCC 10145 assessed as potentiation of ciprofloxacin-induced antibiofilm activity by measuring reduction in metabolic activity of biofilm cells at 1000 ug/ml in presence of 1/8XMIC ciprofloxacin by resazurin staining based fluorescence analysis; assay type: functional, organism-based; details: dose 1000.0 µg/ml
[8] = tested on: Staphylococcus aureus; assay: Inhibition of virulence production in pre-established 24 hr-old Staphylococcus aureus CECT 976 biofilms assessed as diameter of gelatinases halo at 10XMTC measured after 48 hrs in presence of 1/2XMIC tobramycin (reference value: 9.3 to 9.5 mm); assay type: functional
[9] = tested on: Staphylococcus aureus; assay: Antibiotic adjuvant activity against Staphylococcus aureus CECT 976 assessed as potentiation of tobamycin-induced antibacterial activity by measuring tobramycin MBC at 62.5 ug/ml measured after 24 hrs by checkerboard assay (reference value: 4 ug/ml); assay type: functional; details: dose 62.5 µg/ml
[10] = tested on: Cell membrane; assay: Disruption of membrane integrity in pre-established 24 hr-old Staphylococcus aureus CECT 976 biofilm at 10XMTC measured after 24 hrs by PI staining based flow cytomtery; assay type: subcellular
[11] = tested on: Staphylococcus aureus; assay: Inhibition of virulence production in pre-established 24 hr-old Staphylococcus aureus CECT 976 biofilms assessed as diameter of lipases halo at 10XMTC measured after 48 hrs in presence of 1XMIC tobramycin (reference value: 11.8 to 12.3 mm); assay type: functional
[12] = tested on: Staphylococcus aureus; assay: Inhibition of virulence production in pre-established 24 hr-old Staphylococcus aureus CECT 976 biofilms assessed as diameter of lipases halo at 1XMTC measured after 48 hrs (reference value: 11.5 to 11.8 mm); assay type: functional
[13] = tested on: Staphylococcus aureus; assay: Inhibition of virulence production in Staphylococcus aureus CECT 976 biofilms assessed as diameter of protease halo at 1XMTC measured after 72 hrs (reference value: 12 to 13 mm); assay type: functional
[14] = Metal chelating activity at iron(III) in chrome azurol sulphonate solution at 1000 ug/ml incubated for 30 mins by spectrophotometric analysis; details: dose 1000.0 µg/ml
[15] = tested on: Staphylococcus aureus; assay: Inhibition of virulence production in Staphylococcus aureus CECT 976 biofilms assessed as diameter of gelatinases halo at 1/2XMTC measured after 48 hrs (reference value: 10.8 to 11.5 mm); assay type: functional
[16] = tested on: Pseudomonas aeruginosa; assay: Antibacterial activity against Pseudomonas aeruginosa ATCC 10145 assessed as inhibition of bacterial growth by measuring inhibition zone diameter at 100 ug/ml incubated for 24 hrs in presence of ciprofloxacin by disc diffusion method (reference value: 24.25 +/-0.5 mm); assay type: functional; details: read-out: DIZ
[17] = tested on: Cell membrane; assay: Disruption of membrane integrity in Staphylococcus aureus CECT 976 biofilm at 500 ug/ml measured after 24 hrs in presence of 1/2XMIC tobramycin by SYTO9/PI dye based epifluorescence microscopy; assay type: subcellular; details: dose 500.0 µg/ml
[18] = tested on: Staphylococcus aureus; assay: Antibiofilm activity against Staphylococcus aureus CECT 976 assessed as reduction in biofilm cells culturability at 500 to 1000 ug/ml measured after 24 hrs by visual counting method; assay type: functional, organism-based; details: dose 500-1000 µg/ml
[19] = tested on: Staphylococcus aureus; assay: Inhibition of virulence production in Staphylococcus aureus CECT 976 biofilms assessed as diameter of gelatinases halo at 1/2XMTC measured after 48 hrs in presence of 1/4XMIC tobramycin (reference value: 11.3 to 11.8 mm); assay type: functional
[20] = tested on: Staphylococcus aureus; assay: Inhibition of virulence production in Staphylococcus aureus CECT 976 biofilms assessed as diameter of protease halo at 1/2XMTC measured after 72 hrs in presence of 1/2XMIC tobramycin (reference value: 12.5 to 13.3 mm); assay type: functional
[21] = tested on: Staphylococcus aureus; assay: Inhibition of virulence production in Staphylococcus aureus CECT 976 biofilms assessed as diameter of siderophores halo at 1/2XMTC measured after 48 hrs in presence of 1/4XMIC tobramycin (reference value: 10.5 +/-0.6 mm); assay type: functional
[22] = tested on: Pseudomonas aeruginosa; assay: Antibiotic adjuvant activity against Pseudomonas aeruginosa ATCC 10145 assessed as potentiation of ciprofloxacin-induced antibacterial activity by measuring ciprofloxacin MIC at 15.6 ug/ml measured after 24 hrs by checkerboard assay (reference value: […] ug/ml); assay type: functional; details: dose 15.6 µg/ml
[23] = tested on: Staphylococcus aureus; assay: Antibacterial activity against Staphylococcus aureus CECT 976 assessed as inhibition of bacterial growth by measuring inhibition zone diameter at 1000 ug/ml incubated for 24 hrs in presence of tobramycin by disc diffusion method (reference value: 12.5 +/- 1.29 mm); assay type: functional; details: read-out: DIZ
[24] = tested on: Staphylococcus aureus; assay: Antibiotic adjuvant activity against Staphylococcus aureus CECT 976 assessed as potentiation of tobramycin-induced antibiofilm activity by measuring reduction in biomass production at 500 ug/ml measured after 24 hrs in presence of tobramycin by crystal violet staining method; assay type: functional, organism-based; details: dose 500.0 µg/ml
[25] = tested on: Staphylococcus aureus; assay: Inhibition of virulence production in Staphylococcus aureus CECT 976 biofilms assessed as diameter of siderophores halo at 1XMTC measured after 48 hrs (reference value: 12 mm); assay type: functional
[26] = tested on: Cell membrane; assay: Disruption of membrane integrity in Staphylococcus aureus CECT 976 biofilm assessed as increase in PI uptake at 500 ug/ml measured after 24 hrs in presence of 1/8X to 1/2XMIC tobramycin by flow cytometry; assay type: subcellular; details: dose 500.0 µg/ml
[27] = tested on: Pseudomonas aeruginosa; assay: Antibacterial activity against Pseudomonas aeruginosa ATCC 10145 assessed as inhibition of bacterial growth by measuring inhibition zone diameter at 100 ug/ml incubated for 24 hrs in presence of tetracycline by disc diffusion method (reference value: 2 mm); assay type: functional; details: read-out: DIZ
[28] = tested on: Staphylococcus aureus; assay: Inhibition of virulence production in pre-established 24 hr-old Staphylococcus aureus CECT 976 biofilms assessed as diameter of siderophores halo at 10XMTC measured after 48 hrs in presence of 1/4XMIC tobramycin (reference value: 11.5 +/-0.6 mm); assay type: functional

Question: With `O=c1cc(CO)occ1O` [KOJIC ACID] as the compound, how does the Activity [1] read?
Answer: The Activity was 2.3 mm.

Question: And the Activity [2]?
Answer: The Activity was 0 mm.

Question: And the zone of inhibition at 1000 µg/mL [3]?
Answer: Its zone of inhibition at 1000 µg/mL is 9.5 mm.

Question: What about the zone of inhibition at 1000 µg/mL [4] of the same compound?
Answer: Its zone of inhibition at 1000 µg/mL is 30.8 mm.

Question: What about the Activity [5] of the same compound?
Answer: The Activity was 2 mm.

Question: And the MBC [6]?
Answer: The MBC was greater than 1000 µg/mL.

Question: And the Activity [7]?
Answer: The Activity was “inactive”.

Question: And the Activity [8]?
Answer: The Activity was 0 mm.

Question: And the MBC [9]?
Answer: Its MBC is 1 µg/mL.

Question: And the Activity [10]?
Answer: Its Activity is 90%.

Question: And the Activity [11]?
Answer: The Activity was 2 mm.

Question: What about the Activity [12] of the same compound?
Answer: The Activity was 2.3 mm.

Question: And the Activity [13]?
Answer: Its Activity is 0 mm.

Question: And the Activity [14]?
Answer: The Activity was 85%.

Question: What about the Activity [15] of the same compound?
Answer: Its Activity is 0 mm.

Question: And the zone of inhibition at 100 µg/mL [16]?
Answer: Its zone of inhibition at 100 µg/mL is 30.2 mm.

Question: What about the Activity [17] of the same compound?
Answer: Its Activity is “inactive”.

Question: And the Activity [18]?
Answer: Its Activity is “inactive”.

Question: And the Activity [19]?
Answer: The Activity was 0 mm.

Question: And the Activity [20]?
Answer: The Activity was 0 mm.

Question: And the Activity [21]?
Answer: Its Activity is 9.5 mm.

Question: And the MIC [22]?
Answer: Its MIC is 16 µg/mL.

Question: What about the zone of inhibition at 1000 µg/mL [23] of the same compound?
Answer: The zone of inhibition at 1000 µg/mL was 13.2 mm.

Question: What about the Activity [24] of the same compound?
Answer: The Activity was “Active; Slight Increase Noted”.

Question: And the Activity [25]?
Answer: The Activity was 10 mm.

Question: What about the Activity [26] of the same compound?
Answer: Its Activity is “inactive”.

Question: And the zone of inhibition at 100 µg/mL [27]?
Answer: Its zone of inhibition at 100 µg/mL is 5 mm.

Question: And the Activity [28]?
Answer: The Activity was 10.3 mm.

Question: Which results are given for `Cc1occc(=O)c1O` [MALTOL]?
Answer: Activity [1]: 2 mm; Activity [2]: 0 mm; zone of inhibition at 1000 µg/mL [3]: 17.5 mm; zone of inhibition at 1000 µg/mL [4]: 33 mm; Activity [5]: 2.3 mm; MBC [6]: > 1000 µg/mL; Activity [7]: inactive; Activity [8]: 0 mm; MBC [9]: 1 µg/mL; Activity [10]: 90%; Activity [11]: 2.3 mm; Activity [12]: 2.8 mm; Activity [13]: 0 mm; Activity [14]: 90%; Activity [15]: 0 mm; zone of inhibition at 100 µg/mL [16]: 27.2 mm; Activity [17]: inactive; Activity [18]: inactive; Activity [19]: 0 mm; Activity [20]: 0 mm; Activity [21]: 9.5 mm; MIC [22]: 16 µg/mL; zone of inhibition at 1000 µg/mL [23]: 19 mm; Activity [24]: Active; Slight Increase Noted; Activity [25]: 10 mm; Activity [26]: inactive; zone of inhibition at 100 µg/mL [27]: 3.5 mm; Activity [28]: 10.3 mm
